Data published in US20110178053A1, “AZACARBOLINE DERIVATIVES, PREPARATION METHOD THEREOF AND THERAPEUTIC USE OF SAME” (SANOFI-AVENTIS, priority 2008, published 2011).
Where two headings read alike, the source gives them in different places.

Tests used:
MV4-11 = test: Cell viability assay (CellTiter-Blue), MV4-11; type: cell-based; conditions: Homo sapiens
Excerpt: (§1) The representative compounds of the invention are also screened as regards their effects on cell proliferation and viability using a variety of human tumour cell lines, which are representative of various pathological indications. These cell lines include: • Models of haematological cancers: • TF-1 (acute myelogenic leukaemia; AML M6 at the time of diagnosis); • KG-1 (AML; erythroleukaemia evolving into AML); • KG-1a (AML; sub-clone derived from immature KG-1); • EOL-1 (AML; eosinophilic leukaemia); • PL-21 (AML; M3); • ML-2 (AML; T-NHL evolving into T-ALL evolving into AML M4); • HL-60 (AML, M3); • Kasumi-1 (AML); • GDM-1 (AML); • K-562 (CML—chronic myelogenic leukaemia; blastic crisis); • JURL-MK1 (CML; blastic crisis); • DND-41 (T-ALL—-cell acute lymphoblastic leukaemia); • Jurkat (T-ALL); NALM-6 (B-ALL—B-cell ALL); • CEM (ALL; lymphosarcoma evolving into ALL); • Jeko-1 (B-NHL—B-cell non-Hodgkin lymphoma; mantle-cell lymphoma derived from a variant with large cells as a leukaemic transformation); • WSU-DLCL2 (B-NHL; large B-cell diffuse lymphoma); • RL (B-NHL; undifferentiated diffuse); • OCI-Ly10 (B-NHL); • DoHH-2 (B-NHL); • RPMI-8226 (MM—multiple myeloma); • JVM-2 (B-CLL—B-cell chronic lymphocytic leukaemia); and • JVM-3 (B-CLL) • MV4-11 (AML) • MOLM13 (AML). • Solid tumour models: • HCT-116 (bowel cancer); • HT-29 (bowel cancer); • HC-15 (bowel cancer); • H460 (lung cancer; non-small-cell lung cancer); • A375 (melanoma); • B16F10 (melanoma); • MDA-A1 (breast cancer); • MDA-MB231 (breast cancer); • MDA-MB231 adr (breast cancer); • PANC-1 (pancreatic cancer); and • PC-3 (prostate cancer).
(§2) In order to measure the viability, the tumour cells are incubated in a 96-well or 384-well format for 48, 72 or 96 hours, preferably 72 hours, with a compound of the invention at dilutions of a factor 3 with, in general, nine doses in total, the highest dose being equal to 10 μM or 30 μM. The cell viability is evaluated by adding CellTiter-Blue® (Promega, Madison, Wis., United States) for 4 hours and end-point readings are taken using a SpectraMax Genmini EM (Molecular Devices, Sunnyvale, Calif., United States). The CellTiter-Blue® cell viability assay measures the ability of the cells in culture to reduce resazurin to resorufin, the fluorescence signal intensity being directly proportional to the number of live cells.

EOL-1 = test: Cell viability assay (CellTiter-Blue), EOL-1; type: cell-based; conditions: Homo sapiens, EOL1, read-out: EC50 EOL-1 μM (lymphoma)
Excerpt: as §1, §2

PLK1 = PLK1 (Homo sapiens, UniProt P53350); test: PLK1 biochemical inhibition
MOLM-13 = test: Cell viability assay (CellTiter-Blue), MOLM-13; type: cell-based; conditions: Homo sapiens
Excerpt: as §1, §2

Pim-1 = target: T1, Pim-1 (Homo sapiens, UniProt P11309); test: TR-FRET assay, Pim-1 kinase (phosphorylation of Bad Ser112); type: biochemical; conditions: TR-FRET; ATP 40 μM; read-out: IC50 Pim1
T1 construct: His6-labelled recombinant full-length human Pim-1, Pim-2 or Pim-3 protein; His6; made in house
Method in brief: (§3)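 Recombinant His6-tagged full-length human Pim-1, Pim-2 or Pim-3 phosphorylates His6-tagged full-length human Bad at 40 μM ATP (apparent KM). Phospho-Ser112 is detected by TR-FRET between Eu-labelled anti-phosphoBad and APC-labelled anti-His6 (665/615 nm ratio); 10-point duplicate series, top typically 30 μM, IC50 from 4-parameter logistic fit.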

Pim-2 = target: T2, Pim-2 (Homo sapiens, UniProt Q9P1W9); test: TR-FRET assay, Pim-2 kinase (phosphorylation of Bad Ser112); type: biochemical; conditions: TR-FRET; ATP 40 μM; read-out: IC50 Pim2
T2 construct: His6-labelled recombinant full-length human Pim-1, Pim-2 or Pim-3 protein; His6; made in house
Method in brief: as §3

Pim-3 = target: T3, Pim-3 (Homo sapiens, UniProt Q86V86); test: TR-FRET assay, Pim-3 kinase (phosphorylation of Bad Ser112); type: biochemical; conditions: TR-FRET; ATP 40 μM; read-out: IC50 Pim3
T3 construct: His6-labelled recombinant full-length human Pim-1, Pim-2 or Pim-3 protein; His6; made in house
Method in brief: as §3

[1] = MV4-11 cells, cell proliferation/viability, read-out: IC50 MV4-11 μM (myeloma)
[2] = EOL-1 cells, cell proliferation/viability
[3] = MOLM-13 cells, cell proliferation/viability, read-out: IC50 MOLM-13 μM (myeloma)

Chain of PLK1 (P53350 whole entry, species assumed): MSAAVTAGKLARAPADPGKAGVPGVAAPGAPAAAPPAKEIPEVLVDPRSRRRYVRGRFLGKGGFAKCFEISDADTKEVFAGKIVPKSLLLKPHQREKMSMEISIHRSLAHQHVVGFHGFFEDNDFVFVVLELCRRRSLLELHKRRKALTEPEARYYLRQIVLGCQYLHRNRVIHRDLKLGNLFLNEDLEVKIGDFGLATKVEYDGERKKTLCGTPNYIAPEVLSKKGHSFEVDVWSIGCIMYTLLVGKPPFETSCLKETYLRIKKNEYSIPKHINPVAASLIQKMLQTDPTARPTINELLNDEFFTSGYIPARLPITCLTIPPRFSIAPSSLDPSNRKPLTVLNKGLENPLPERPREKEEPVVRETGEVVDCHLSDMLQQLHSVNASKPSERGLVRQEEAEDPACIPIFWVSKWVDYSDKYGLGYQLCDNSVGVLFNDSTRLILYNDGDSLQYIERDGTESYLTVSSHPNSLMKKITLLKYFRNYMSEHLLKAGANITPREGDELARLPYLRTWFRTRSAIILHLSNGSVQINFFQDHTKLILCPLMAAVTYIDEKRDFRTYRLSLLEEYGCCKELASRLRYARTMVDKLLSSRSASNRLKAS
T1 sequence (P11309 whole entry): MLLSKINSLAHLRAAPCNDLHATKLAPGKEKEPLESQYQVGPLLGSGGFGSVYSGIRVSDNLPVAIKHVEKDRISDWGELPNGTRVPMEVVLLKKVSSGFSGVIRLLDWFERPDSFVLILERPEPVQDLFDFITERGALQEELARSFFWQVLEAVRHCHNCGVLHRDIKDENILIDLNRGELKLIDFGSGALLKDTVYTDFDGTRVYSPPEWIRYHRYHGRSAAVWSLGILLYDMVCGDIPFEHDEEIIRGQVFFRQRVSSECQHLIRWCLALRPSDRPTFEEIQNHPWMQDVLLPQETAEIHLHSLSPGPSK
T2 sequence (Q9P1W9 whole entry): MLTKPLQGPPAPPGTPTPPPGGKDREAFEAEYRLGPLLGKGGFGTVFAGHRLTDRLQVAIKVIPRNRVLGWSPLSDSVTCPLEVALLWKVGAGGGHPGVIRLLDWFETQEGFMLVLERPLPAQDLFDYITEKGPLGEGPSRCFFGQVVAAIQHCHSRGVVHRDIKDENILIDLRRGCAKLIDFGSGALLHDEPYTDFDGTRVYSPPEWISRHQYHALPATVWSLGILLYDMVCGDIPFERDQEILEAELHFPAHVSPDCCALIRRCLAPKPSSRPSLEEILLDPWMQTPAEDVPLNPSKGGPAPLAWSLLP

Compound	IC50 (MV4-11; [1]) [nM]	EC50 (EOL-1; [2]) [nM]	IC50 (PLK1) [nM]	IC50 (MOLM-13; [3]) [nM]	IC50 (Pim-1) [nM]	IC50 (Pim-2) [nM]	IC50 (Pim-3) [nM]	IC50 (MV4-11; MV4-11, read-out: IC50 MV4-11 μM (myeloma)) [nM]	EC50 (EOL-1) [nM]	IC50 (MOLM-13; MOLM-13, read-out: IC50 MOLM-13 μM (myeloma)) [nM]
COc1cnc2[nH]c3cnc(-c4cccnc4)cc3c2c1 [Example 7, 3-methoxy-6-(pyrid-3-yl)-9H-pyrrolo-[2,3-b:5,4-c′]-dipyridine]	100 to 1000	100 to 1000	100 to 1000	100 to 1000	1 to 100	100 to 1000	1 to 100	–	–	–
COc1ccnc2[nH]c3cnc(-c4cccnc4)cc3c12 [Example 8, 4-methoxy-6-(pyrid-3-yl)-9H-pyrrolo-[2,3-b:5,4-c′]-dipyridine]	100 to 1000	100 to 1000	100 to 1000	100 to 1000	1 to 100	1000 to 5000	100 to 1000	–	–	–
CN(C)CCOc1ccc(-c2c(F)cnc3[nH]c4cnc(-c5cccnc5)cc4c23)cc1 [Example 96, 2-{4-[3-fluoro-6-(pyrid-3-yl)-9H-pyrrolo[2,3-b:5,4-c′]dipyrid-4-yl]-phenoxy}-N,N-dimethylethanamine]	100 to 1000	1 to 100	100 to 1000	100 to 1000	1 to 100	100 to 1000	1 to 100	–	–	–
Fc1cnc2[nH]c3cnc(-c4cccnc4)cc3c2c1N1CCOCC1 [Example 33, 3-fluoro-4-(morpholin-4-yl)-6-(pyrid-3-yl)-9H-pyrrolo[2,3-b:5,4-c′]-dipyridine]	1000 to 5000	100 to 1000	–	100 to 1000	1 to 100	100 to 1000	100 to 1000	–	–	–
CC(COc1ccc(-c2c(F)cnc3[nH]c4cnc(-c5cccnc5)cc4c23)cc1)CN(C)C (centres unmarked) [Example 98, 3-{4-[3-fluoro-6-(pyrid-3-yl)-9H-pyrrolo[2,3-b:5,4-c′]dipyrid-4-yl]phenoxy}-N,N,2-trimethylpropan-1-amine]	100 to 1000	1 to 100	100 to 1000	100 to 1000	1 to 100	1 to 100	1 to 100	–	–	–
CCN(CC)CCn1cc(-c2cnc3[nH]c4cnc(-c5cccnc5)cc4c3c2)cn1 [Example 123, N,N-diethyl-2-{4-[6-(pyrid-3-yl)-9H-pyrrolo-[2,3-b:5,4-c′]-dipyrid-3-yl]-1H-pyrazol-1-yl}-ethanamine]	1 to 100	1 to 100	1000 to 5000	1 to 100	1 to 100	100 to 1000	1 to 100	–	–	–
c1cncc(-c2cc3c(cn2)[nH]c2ncc(-c4ccc(N5CCNCC5)cc4)cc23)c1 [Example 130, 3-[4-(piperazin-1-yl)phenyl]-6-(pyrid-3-yl)-9H-pyrrolo[2,3-b:5,4-c′]dipyridine]	1 to 100	1 to 100	–	1 to 100	1 to 100	100 to 1000	1 to 100	–	–	–
Cc1n[nH]c(C)c1-c1cnc2[nH]c3cnc(-c4cccnc4)cc3c2c1 [Example 120, 3-(3,5-dimethyl-1H-pyrazol-4-yl)-6-(pyrid-3-yl)-9H-pyrrolo[2,3-b:5,4-c′]-dipyridine]	1 to 100	1 to 100	100 to 1000	100 to 1000	1 to 100	> 5000	1 to 100	–	–	–
CN(C)CCCOc1ccc(-c2c(F)cnc3[nH]c4cnc(-c5cccnc5)cc4c23)cc1 [Example 94, 3-{-4-[3-fluoro-6-(pyrid-3-yl)-9H-pyrrolo[2,3-b:5,4-c′]dipyrid-4-yl]phenoxy}-N,N-dimethylpropan-1-amine]	–	–	1 to 100	–	1 to 100	100 to 1000	1 to 100	1 to 100	1 to 100	100 to 1000
Fc1cnc2[nH]c3cnc(-c4cccnc4)cc3c2c1-c1ccc(OCCN2CCCC2)cc1 [Example 97, 3-fluoro-6-(pyrid-3-yl)-4-{4-[2-(pyrrolidin-1-yl)ethoxy]phenyl}-9H-pyrrolo[2,3-b:5,4-c′]dipyridine]	100 to 1000	100 to 1000	1 to 100	100 to 1000	1 to 100	100 to 1000	1 to 100	–	–	–
